Results taken from paper PMC5400251, “Effect of quinoline based 1,2,3-triazole and its structural analogues on growth and virulence attributes of Candida albicans” (PLoS ONE, 2017).

How the values were obtained:
Test in all cases: Growth assay (growth curve)
Format in all cases: cell-based
Details in all cases: sub-MIC (MIC/2)
[1] = system: C. albicans D27 (FLC-susceptible)
Procedure: (§1) The C. albicans cells were freshly revived by subculture on the SD agar plate. A loopful of inoculum was introduced into the SD broth and cells were grown for 16 h at 37°C before use. Approximately 2×10^3 cells/mL were then inoculated into the freshly prepared 50 mL sterile SD medium. […] At predetermined time periods (0, 2, 4, 6, 8, 10, 12, 14, 16, 18, 20 22, and 24 after incubation with agitation at 37°C), 1 mL aliquot of each sample was removed from the conical flask and growth was measured tubidometrically at 600 nm using Thermo Multiskan spectrophotometer. Optical density was recorded for each concentration against time (h).

[2] = system: C. albicans ATCC 90028 (Standard)
Procedure: as §1

[3] = system: C. albicans D15.9 (FLC-resistant)
Procedure: as §1

## Clc1ccc(OCc2cn(Cc3ccccc3)nn2)c2ncccc12 [Compound 3b, 8-((1-Benzyl-1H-1,2,3-triazol-4-yl)methoxy)-5-chloroquinoline]
[1]
  Time after which growth was observed: 18 h
[2]
  Time after which growth was observed: 20 h
[3]
  Time after which growth was observed: 14 h
